Measurements: US12083124B2 (Incyte Corporation, priority 2019, dated 2024)
pIC50: −log10 of the molar value. Where two headings read alike, the source gives them in different places.

Columns and labels:
[1] = biological target: wild-type un-phosphorylated FGFR2 (Homo sapiens, UniProt P21802); test: FGFR Enzymatic Assay (FRET peptide phosphorylation), FGFR2
[2] = biological target: wild-type un-phosphorylated FGFR3 (Homo sapiens, UniProt P22607); test: FGFR Enzymatic Assay (FRET peptide phosphorylation), FGFR3
Sequence of wild-type un-phosphorylated FGFR3 (P22607 23-806): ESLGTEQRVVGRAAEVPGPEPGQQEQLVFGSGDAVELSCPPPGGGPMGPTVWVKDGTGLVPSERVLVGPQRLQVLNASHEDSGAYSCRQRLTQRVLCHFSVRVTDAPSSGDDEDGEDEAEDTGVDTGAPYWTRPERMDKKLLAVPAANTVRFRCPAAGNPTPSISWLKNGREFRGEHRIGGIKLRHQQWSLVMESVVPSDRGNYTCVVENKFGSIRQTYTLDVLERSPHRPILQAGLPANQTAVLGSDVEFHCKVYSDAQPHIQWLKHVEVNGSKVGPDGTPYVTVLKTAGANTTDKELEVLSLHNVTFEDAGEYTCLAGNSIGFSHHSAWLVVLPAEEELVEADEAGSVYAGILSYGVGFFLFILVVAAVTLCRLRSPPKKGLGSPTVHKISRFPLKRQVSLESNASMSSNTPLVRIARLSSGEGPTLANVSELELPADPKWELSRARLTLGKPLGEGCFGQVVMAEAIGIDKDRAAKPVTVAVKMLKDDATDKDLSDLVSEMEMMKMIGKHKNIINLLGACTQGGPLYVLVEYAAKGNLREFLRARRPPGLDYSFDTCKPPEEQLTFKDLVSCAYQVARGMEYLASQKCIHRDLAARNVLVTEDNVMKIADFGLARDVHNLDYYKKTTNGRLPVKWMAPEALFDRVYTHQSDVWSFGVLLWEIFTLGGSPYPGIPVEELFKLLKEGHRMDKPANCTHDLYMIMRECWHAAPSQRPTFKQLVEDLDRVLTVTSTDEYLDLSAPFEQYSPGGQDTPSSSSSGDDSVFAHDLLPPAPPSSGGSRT

[3] = biological target: wild-type un-phosphorylated FGFR1 (Homo sapiens, UniProt P11362); test: FGFR Enzymatic Assay (FRET peptide phosphorylation), FGFR1; details: pre-incubated for 4 hours
Sequence of wild-type un-phosphorylated FGFR1 (P11362 22-822): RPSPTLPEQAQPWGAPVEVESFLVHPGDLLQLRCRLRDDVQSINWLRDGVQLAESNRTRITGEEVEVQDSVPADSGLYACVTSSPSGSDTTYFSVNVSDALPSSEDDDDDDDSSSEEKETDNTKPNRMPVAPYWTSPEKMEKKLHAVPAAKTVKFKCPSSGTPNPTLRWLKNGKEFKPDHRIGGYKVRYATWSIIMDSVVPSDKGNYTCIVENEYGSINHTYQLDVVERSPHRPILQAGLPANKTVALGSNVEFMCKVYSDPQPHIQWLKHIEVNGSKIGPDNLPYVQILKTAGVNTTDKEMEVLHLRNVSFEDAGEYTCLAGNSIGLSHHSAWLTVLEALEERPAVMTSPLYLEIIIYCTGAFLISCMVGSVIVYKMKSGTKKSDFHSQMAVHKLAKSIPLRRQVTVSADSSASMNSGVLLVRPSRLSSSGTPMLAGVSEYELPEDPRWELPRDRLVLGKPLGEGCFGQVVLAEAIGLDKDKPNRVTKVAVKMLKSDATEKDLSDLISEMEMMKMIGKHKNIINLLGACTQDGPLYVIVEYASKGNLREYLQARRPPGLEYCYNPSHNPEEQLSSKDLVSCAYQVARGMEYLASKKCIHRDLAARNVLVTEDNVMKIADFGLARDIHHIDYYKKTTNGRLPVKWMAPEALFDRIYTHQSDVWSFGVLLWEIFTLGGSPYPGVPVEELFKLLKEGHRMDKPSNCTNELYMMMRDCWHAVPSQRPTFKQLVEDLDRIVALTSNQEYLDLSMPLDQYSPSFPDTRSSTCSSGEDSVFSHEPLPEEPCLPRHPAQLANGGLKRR

[4] = biological target: wild-type un-phosphorylated FGFR4 (Homo sapiens, UniProt P22455); test: FGFR Enzymatic Assay (FRET peptide phosphorylation), FGFR4
Sequence of wild-type un-phosphorylated FGFR4 (P22455 22-802): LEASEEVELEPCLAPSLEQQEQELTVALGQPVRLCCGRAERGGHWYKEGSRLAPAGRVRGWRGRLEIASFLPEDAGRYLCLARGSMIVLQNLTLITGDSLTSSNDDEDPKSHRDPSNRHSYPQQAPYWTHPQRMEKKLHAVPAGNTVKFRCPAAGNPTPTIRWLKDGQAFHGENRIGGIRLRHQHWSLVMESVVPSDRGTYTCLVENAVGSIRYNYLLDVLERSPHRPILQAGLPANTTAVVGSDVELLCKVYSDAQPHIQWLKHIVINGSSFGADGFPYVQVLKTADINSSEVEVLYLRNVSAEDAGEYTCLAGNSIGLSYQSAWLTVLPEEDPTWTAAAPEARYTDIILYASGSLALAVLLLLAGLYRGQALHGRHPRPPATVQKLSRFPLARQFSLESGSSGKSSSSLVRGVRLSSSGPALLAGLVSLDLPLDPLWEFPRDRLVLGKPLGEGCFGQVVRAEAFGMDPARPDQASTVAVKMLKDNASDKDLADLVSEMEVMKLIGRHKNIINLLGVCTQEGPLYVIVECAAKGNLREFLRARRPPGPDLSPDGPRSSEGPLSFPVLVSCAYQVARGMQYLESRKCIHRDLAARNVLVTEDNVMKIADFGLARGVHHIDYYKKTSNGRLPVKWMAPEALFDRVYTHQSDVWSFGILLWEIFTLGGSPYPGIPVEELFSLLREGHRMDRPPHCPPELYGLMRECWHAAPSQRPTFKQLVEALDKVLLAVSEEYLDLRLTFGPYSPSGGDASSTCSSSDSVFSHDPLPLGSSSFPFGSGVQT
Experimental: The inhibitor potency of the exemplified compounds was determined in an enzyme discontinuous assay that measures peptide phosphorylation using FRET measurements to detect product formation. Inhibitors were serially diluted in DMSO and a volume of 0.2 μL was transferred to the wells of a 384-well plate. […] Appropriate controls (enzyme blank and enzyme with no inhibitor) were included on the plate. […] The 10 μL/well reaction concentration of the peptide substrate was 500 nM whereas the ATP concentration was maintained near or below the ATP Km. The ATP Km values were pre-determined in a separate series of experiments. The reaction plate was incubated at 25° C. for 1 hr and the reactions were ended with the addition of 5 μL/well of quench solution (50 mM Tris, 150 mM NaCl, 0.5 mg/mL BSA, pH 7.8; 45 mM EDTA, 600 nM staurosporin, with Perkin Elmer Lance Reagents at 3.75 nM Eu-antibody PY20 and 180 nM APC-Streptavidin). The plate was allowed to equilibrate for ˜10 minutes at ambient temperature before scanning on a PheraStar plate reader (BMG Labtech) instrument.
Either GraphPad prism or XLfit was used to analyze the data. The IC50 values were derived by fitting the data to a four parameter logistic equation producing a sigmoidal dose-response curve with a variable Hill coefficient. Prism equation: Y=Bottom+(Top-Bottom)/(1+10^((Log IC50-X)*Hill slope)); XLfit equation: Y=(A+((B−A)/(1+((X/C)^D)))) where X is the logarithm of inhibitor concentration and Y is the response.
GraphPad prism3 was used to analyze the data. The IC50 values were derived by fitting the data to the equation for a sigmoidal dose-response with a variable slope. Y=Bottom+(Top-Bottom)/(1+10^((Log IC50-X)*Hill Slope)) where X is the logarithm of concentration and Y is the response.
The data in Table 1 was measured in wild-type un-phosphorylated FGFR1, FGFR2, FGFR3, and FGFR4 proteins.

[5] = read-out: FGFR1, wild-type un-phosphorylated FGFR1
[6] = read-out: FGFR4, wild-type un-phosphorylated FGFR4, pre-incubated for 4 hours
[7] = FGFR1, wild-type un-phosphorylated FGFR1

Sequence of wild-type un-phosphorylated FGFR2 (P21802 22-821): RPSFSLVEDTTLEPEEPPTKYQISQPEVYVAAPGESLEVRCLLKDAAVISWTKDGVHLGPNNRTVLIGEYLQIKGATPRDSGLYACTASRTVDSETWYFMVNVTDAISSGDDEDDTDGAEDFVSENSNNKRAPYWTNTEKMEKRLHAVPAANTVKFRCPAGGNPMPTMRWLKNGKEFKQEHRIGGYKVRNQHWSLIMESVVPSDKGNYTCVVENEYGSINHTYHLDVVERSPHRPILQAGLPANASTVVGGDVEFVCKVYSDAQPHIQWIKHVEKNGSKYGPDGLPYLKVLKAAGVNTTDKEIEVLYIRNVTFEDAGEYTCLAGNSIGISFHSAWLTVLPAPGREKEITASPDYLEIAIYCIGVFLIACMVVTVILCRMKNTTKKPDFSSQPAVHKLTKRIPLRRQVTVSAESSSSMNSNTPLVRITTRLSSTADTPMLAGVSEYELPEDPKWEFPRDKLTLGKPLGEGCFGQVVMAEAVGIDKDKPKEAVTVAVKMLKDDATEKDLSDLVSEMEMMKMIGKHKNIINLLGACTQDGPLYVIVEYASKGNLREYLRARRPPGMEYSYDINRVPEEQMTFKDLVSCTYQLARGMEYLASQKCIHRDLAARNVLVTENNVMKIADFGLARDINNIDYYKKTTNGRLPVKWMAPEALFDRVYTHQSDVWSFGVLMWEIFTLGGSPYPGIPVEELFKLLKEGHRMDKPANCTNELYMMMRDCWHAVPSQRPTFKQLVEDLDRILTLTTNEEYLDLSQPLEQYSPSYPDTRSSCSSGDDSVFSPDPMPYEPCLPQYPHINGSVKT

Row | SMILES | pIC50 [1] | pIC50 [2] | pIC50 [3, 5] | pIC50 [4, 6] | pIC50 [4] | pIC50 [3, 7] | pIC50 ([1]; read-out: FGFR2, wild-type un-phosphorylated FGFR2, pre-incubated for 4 hours)
1 | COc1cc2[nH]nc(-c3ccc(C4CCN(C(=O)CO)C4)nc3)c2nc1-c1cccc2c1CCC2 (single isomer, unassigned) [Example 101, 1-(3-(5-(5-(2,3-Dihydro-1H-inden-4-yl)-6-methoxy-1H-pyrazolo[4,3-b]pyridin-3-yl)pyridin-2-yl)pyrrolidin-1-yl)-2-hydroxyethan-1-one] | > 8.22 | > 8.22 | 7.40 to 8.22 | 7.40 to 8.22 | – | – | –
2 | COc1cc2[nH]nc(-c3ccc(C4CCN(C(=O)CO)CC4)nc3)c2nc1-c1cccc2c1CCC2 [Example 100, 1-(4-(5-(5-(2,3-Dihydro-1H-inden-4-yl)-6-methoxy-1H-pyrazolo[4,3-b]pyridin-3-yl)pyridin-2-yl)piperidin-1-yl)-2-hydroxyethan-1-one] | > 8.22 | > 8.22 | 7.40 to 8.22 | 7.40 to 8.22 | – | – | –
3 | COc1cc2[nH]nc(-c3ccc(C4CCC(O)CC4)nc3)c2nc1-c1cccc2c1CCC2C#N (centres unmarked) [Example 113, 4-(3-(6-(4-Hydroxycyclohexyl)pyridin-3-yl)-6-methoxy-1H-pyrazolo[4,3-b]pyridin-5-yl)-2,3-dihydro-1H-indene-1-carbonitrile] | > 8.22 | > 8.22 | 7.40 to 8.22 | – | 7.00 to 7.40 | – | –
4 | COc1cc2[nH]nc(-c3ccc(C4CCN(C(=O)N5CCOCC5)CC4)nc3)c2nc1-c1cccc2c1CCC2C#N (single isomer, unassigned) [Example 181, 4-(6-Methoxy-3-(6-(1-(morpholine-4-carbonyl)piperidin-4-yl)pyridin-3-yl)-1H-pyrazolo[4,3-b]pyridin-5-yl)-2,3-dihydro-1H-indene-1-carbonitrile] | > 8.22 | > 8.22 | 7.40 to 8.22 | 7.40 to 8.22 | – | – | –
5 | COc1cc2[nH]nc(-c3ccc(C4CCN(C(=O)C5COCCN5C)C4)nc3)c2nc1-c1cccc2c1CCC2 (single isomer, unassigned) [Example 109] | > 8.22 | > 8.22 | 7.40 to 8.22 | 7.40 to 8.22 | – | – | –
6 | COc1cc2[nH]nc(-c3ccc(CN4CCn5ncnc5C4)nc3)c2nc1-c1cccc2c1CCC2 [Example 163, 7-((5-(5-(2,3-Dihydro-1H-inden-4-yl)-6-methoxy-1H-pyrazolo[4,3-b]pyridin-3-yl)pyridin-2-yl)methyl)-5,6,7,8-tetrahydro-[1,2,4]triazolo[1,5-a]pyrazine] | > 8.22 | > 8.22 | – | – | 7.00 to 7.40 | 7.00 to 7.40 | –
7 | COc1cc2[nH]nc(-c3cnn([C@H]4CCN(C(=O)[C@H](C)O)C4)c3)c2nc1-c1cccc2c1CCC2 [Example 133, (S)-1-((S)-3-(4-(5-(2,3-Dihydro-1H-inden-4-yl)-6-methoxy-1H-pyrazolo[4,3-b]pyridin-3-yl)-1H-pyrazol-1-yl)pyrrolidin-1-yl)-2-hydroxypropan-1-one] | > 8.22 | > 8.22 | 7.40 to 8.22 | – | 7.00 to 7.40 | – | –
8 | CCN1CC[C@H]1C(=O)N1CC(n2cc(-c3n[nH]c4cc(OC)c(-c5cccc6c5CCC6)nc34)cn2)C1 [Example 140, (S)-(3-(4-(5-(2,3-dihydro-1H-inden-4-yl)-6-methoxy-1H-pyrazolo[4,3-b]pyridin-3-yl)-1H-pyrazol-1-yl)azetidin-1-yl)(1-ethylazetidin-2-yl)methanone] | > 8.22 | > 8.22 | 7.40 to 8.22 | – | 7.00 to 7.40 | – | –
9 | COc1cc2[nH]nc(-c3cnn([C@H]4CCN(C(=O)[C@H]5C[C@@H](O)C5)C4)c3)c2nc1-c1cccc2c1CCC2 [Example 145, ((S)-3-(4-(5-(2,3-Dihydro-1H-inden-4-yl)-6-methoxy-1H-pyrazolo[4,3-b]pyridin-3-yl)-1H-pyrazol-1-yl)pyrrolidin-1-yl)((cis)-3-hydroxycyclobutyl)methanone] | > 8.22 | > 8.22 | 7.40 to 8.22 | 7.40 to 8.22 | – | – | –
10 | COc1cc2[nH]nc(-c3cnn(C4CN(C(=O)C5(C#N)CC5)C4)c3)c2nc1-c1cccc2c1CCC2 [Example 149, 1-(3-(4-(5-(2,3-Dihydro-1H-inden-4-yl)-6-methoxy-1H-pyrazolo[4,3-b]pyridin-3-yl)-1H-pyrazol-1-yl)azetidine-1-carbonyl)cyclopropane-1-carbonitrile] | > 8.22 | > 8.22 | 7.40 to 8.22 | 7.40 to 8.22 | – | – | –
11 | COc1cc2[nH]nc(-c3ccc(C4CCC(NC(=O)CO)C4)nc3)c2nc1-c1cccc2c1CCC2 (centres unmarked) [Example 157, N-(3-(5-(5-(2,3-Dihydro-1H-inden-4-yl)-6-methoxy-1H-pyrazolo[4,3-b]pyridin-3-yl)pyridin-2-yl)cyclopentyl)-2-hydroxyacetamide] | > 8.22 | > 8.22 | – | – | 7.00 to 7.40 | 7.00 to 7.40 | –
12 | COc1cc2[nH]nc(-c3cnn(C4CC4)c3)c2nc1-c1cccc2c1CCC2 [Example 29, 3-(1-Cyclopropyl-1H-pyrazol-4-yl)-5-(2,3-dihydro-1H-inden-4-yl)-6-methoxy-1H-pyrazolo[4,3-b]pyridine] | > 8.22 | > 8.22 | – | – | 7.00 to 7.40 | 7.00 to 7.40 | –
13 | COc1cc2[nH]nc(-c3cnn(CCC#N)c3)c2nc1-c1cccc2c1CCC2 [Example 30, 3-(4-(5-(2,3-Dihydro-1H-inden-4-yl)-6-methoxy-1H-pyrazolo[4,3-b]pyridin-3-yl)-1H-pyrazol-1-yl)propanenitrile] | – | > 8.22 | – | – | 7.00 to 7.40 | < 7.00 | 7.40 to 8.22
14 | COc1cc2[nH]nc(-c3cnn([C@H]4CCN(C(=O)[C@@H](C)O)C4)c3)c2nc1-c1cccc2c1CCC2 [Example 132, (R)-1-((S)-3-(4-(5-(2,3-Dihydro-1H-inden-4-yl)-6-methoxy-1H-pyrazolo[4,3-b]pyridin-3-yl)-1H-pyrazol-1-yl)pyrrolidin-1-yl)-2-hydroxypropan-1-one] | > 8.22 | > 8.22 | 7.40 to 8.22 | – | 7.00 to 7.40 | – | –
15 | COc1cc2[nH]nc(-c3ccc(CN4CC5CC4CO5)nc3)c2nc1-c1cccc2c1CCC2 (centres unmarked) [Example 161, 5-((5-(5-(2,3-Dihydro-1H-inden-4-yl)-6-methoxy-1H-pyrazolo[4,3-b]pyridin-3-yl)pyridin-2-yl)methyl)-2-oxa-5-azabicyclo[2.2.1]heptane] | > 8.22 | > 8.22 | – | – | 7.00 to 7.40 | 7.00 to 7.40 | –
16 | [2H]C1(c2ccc(-c3n[nH]c4cc(OC)c(-c5cccc6c5CCC6)nc34)cn2)CN(C(=O)CO)C1 [Example 179, 1-(3-(5-(5-(2,3-Dihydro-1H-inden-4-yl)-6-methoxy-1H-pyrazolo[4,3-b]pyridin-3-yl)pyridin-2-yl)azetidin-1-yl-3-d)-2-hydroxyethan-1-one] | > 8.22 | > 8.22 | 7.40 to 8.22 | 7.40 to 8.22 | – | – | –
17 | COc1cc2[nH]nc(-c3cnn(C4CN(C(=O)N(C)C)C4)c3)c2nc1-c1cccc(C)c1C [Example 72, 3-(4-(5-(2,3-Dimethylphenyl)-6-methoxy-1H-pyrazolo[4,3-b]pyridin-3-yl)-1H-pyrazol-1-yl)-N,N-dimethylazetidine-1-carboxamide] | > 8.22 | > 8.22 | – | – | 7.00 to 7.40 | 7.00 to 7.40 | –
